Data on two molecules can be found in PMC13534789, “Molecular Glue Degraders Enhance CAPRIN1‐Dependent Lysosomal Degradation of APP and Reduce Amyloid β in Alzheimer's Disease” (Advanced Science, 2026).

For one series, the target named is T1, CAPRIN1 (Homo sapiens, UniProt Q14444).
T1 construct: 10xHis (followed by a 3C site) (N); made in house; host or cells: Tni (Hi5) insect cells, baculovirus
In words: SPR, compound onto CAPRIN1 alone. In kind it is binding. The note with it: immobilized CAPRIN1. On the procedure:
SPR experiments were conducted to investigate the interaction between APP695 and CAPRIN1 proteins using a Biacore T200 instrument (Cytiva). Both proteins were expressed in Tni (Hi5) insect cells and purified to homogeneity via tandem affinity and ion‐exchange. Protein purity and integrity were confirmed by SDS‐PAGE and size‐exclusion chromatography prior to analysis. All experiments were performed in a running buffer consisting of 50 mM HEPES at pH7.0, 100 mM KCl, 10% glycerol, and 0.01% (v/v) Tween‐20 supplemented with 0.1% (w/v) Sarkosyl (pH 7.4). APP695 was serially diluted in running buffer to final concentrations of 15, 5, 1, and 0.3 µM. Chip Preparation: A CM5 sensor chip (Cytiva) was activated using a 1:1 (v/v) mixture of 0.1 M N‐hydroxysuccinimide (NHS) and 0.1 M N‐ethyl‐N′‐(3‐dimethylaminopropyl) carbodiimide (EDC) to generate reactive ester groups. CAPRIN1 was diluted to 50 µg/mL in 10 mM Hepes‐KOH buffer (pH 6.0) and immobilized on the chip surface via standard amine coupling to achieve immobilization. Unreacted sites were blocked with 1 M ethanolamine‐HCl (pH 8.5). A reference flow cell was prepared similarly but without protein immobilization to control for non‐specific binding and bulk refractive index changes. Binding assay: Binding interactions were measured at 25°C with a flow rate of 30 µL/min. […]
On the technique in general: Surface plasmon resonance follows binding to a sensor surface in real time, without labels.

The target in another series is APP (Homo sapiens, UniProt P05067). The series is described as follows: Western blot of APP in iPSC-derived neurons. It counts as cell-based. Details: endogenous in cells; host or cells: iPSC-derived neurons (AG27606-Ns, sAD2.3-Ns and others). The note with it: for APP-degrading activity after Bafilomycin A1 pretreatment: Baf A1 20 nM, AG27606-Ns, sAD2.3-Ns, HEK-APP695 cells; for APP-degrading activity after Bafilomycin A1 pretreatment / APP-degrading activity after MG132 pretreatment: 30 min, then compound 10 µM, 24 h; for APP-degrading activity after MG132 pretreatment: MG132 5 µM. On the technique in general: In western blotting, separated proteins are transferred to a membrane and probed.
APP, sequence (P05067 18-695 isoform P05067-4): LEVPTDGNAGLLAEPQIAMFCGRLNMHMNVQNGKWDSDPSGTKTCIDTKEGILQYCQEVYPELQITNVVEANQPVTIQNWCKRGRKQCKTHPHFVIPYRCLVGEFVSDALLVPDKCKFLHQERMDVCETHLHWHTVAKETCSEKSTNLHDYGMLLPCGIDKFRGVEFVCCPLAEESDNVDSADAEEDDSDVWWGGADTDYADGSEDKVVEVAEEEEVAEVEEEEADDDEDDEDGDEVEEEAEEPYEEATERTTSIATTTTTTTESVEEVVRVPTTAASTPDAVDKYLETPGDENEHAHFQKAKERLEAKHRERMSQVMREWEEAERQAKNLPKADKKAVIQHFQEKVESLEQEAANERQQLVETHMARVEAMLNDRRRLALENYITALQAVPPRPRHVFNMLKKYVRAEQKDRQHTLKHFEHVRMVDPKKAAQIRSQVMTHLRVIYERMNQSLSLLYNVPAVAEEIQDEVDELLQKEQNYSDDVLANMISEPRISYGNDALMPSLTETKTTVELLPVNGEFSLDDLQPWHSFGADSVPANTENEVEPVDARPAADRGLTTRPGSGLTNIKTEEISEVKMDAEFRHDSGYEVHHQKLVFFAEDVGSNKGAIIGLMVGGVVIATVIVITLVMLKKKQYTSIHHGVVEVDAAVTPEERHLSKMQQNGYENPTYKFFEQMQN
APP, sequence (Q14444 whole entry partner): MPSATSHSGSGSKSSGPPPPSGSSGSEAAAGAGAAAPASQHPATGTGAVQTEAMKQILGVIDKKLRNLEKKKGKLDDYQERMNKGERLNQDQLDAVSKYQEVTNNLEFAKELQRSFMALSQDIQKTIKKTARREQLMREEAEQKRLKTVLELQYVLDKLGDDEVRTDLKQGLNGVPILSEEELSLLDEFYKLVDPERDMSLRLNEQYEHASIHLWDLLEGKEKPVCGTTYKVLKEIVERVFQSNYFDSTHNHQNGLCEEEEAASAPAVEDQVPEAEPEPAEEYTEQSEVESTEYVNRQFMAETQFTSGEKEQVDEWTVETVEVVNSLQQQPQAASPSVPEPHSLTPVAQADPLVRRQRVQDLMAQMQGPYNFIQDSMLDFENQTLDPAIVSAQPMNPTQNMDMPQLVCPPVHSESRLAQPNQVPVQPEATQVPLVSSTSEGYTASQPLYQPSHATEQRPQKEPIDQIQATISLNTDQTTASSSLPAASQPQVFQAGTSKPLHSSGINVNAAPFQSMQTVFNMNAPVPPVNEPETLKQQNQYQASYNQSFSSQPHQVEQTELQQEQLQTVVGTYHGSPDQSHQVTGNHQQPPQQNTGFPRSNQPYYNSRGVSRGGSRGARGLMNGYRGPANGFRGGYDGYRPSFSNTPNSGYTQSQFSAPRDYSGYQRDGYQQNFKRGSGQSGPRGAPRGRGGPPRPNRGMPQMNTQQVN

In another series the test system is MDR1 (P-gp). The series is described as follows: MDR1-MDCKII permeability assay. In kind it is in vitro ADME. The following applies: dog, MDCK-MDR1, pH 7.4, MDR1-MDCKII. On the procedure: (§1) MDR1‐MDCKII assay was processed by Sai Life Sciences Pvt. Ltd. Briefly, MDR1‐MDCKII cells were seeded onto the polycarbonate membranes in the 24‐well insert system at 0.12 × 10^6 cells/well and cultured for 8 days until confluence before being used for the transport studies. Test compounds were diluted with the transport buffer (HPSS with 10 mM HEPES, pH 7.4) from a DMSO stock solution to a concentration of 2 µM (DMSO < 1%) and applied to the apical or basolateral side of the cell monolayer. The plate was incubated for 2.0 h in a CO2 incubator at 37±1°C, with 5% CO2 at saturated humidity without shaking. Permeability was measured in duplicate (n = 2) in both A→B and B→A directions. Loperamide (P‐gp efflux substrate) was tested at 2 µM bidirectionally, Verapamil was used as P‐gp inhibitor. While Atenolol (low permeability marker) and Propranolol (high permeability marker) were tested at 2.00 µM in the A to B direction in duplicate. Test and reference compounds were quantified by LC‐MS/MS analysis based on the peak area ratio of analyte/internal standard (IS). The efflux ratio of each compound was calculated. Permeability measurements were performed in duplicate (n = 2) in both directions, and the summarized permeability values and efflux ratios are presented in Figure 3A. The corresponding experimental data, including bidirectional Papp values, recovery, and variability (%CV), are provided in Table S3, thereby supporting the results shown in Figure 3A. After the transport assay, Lucifer yellow fluorescence rejection assay was performed to confirm the integrity of the cell monolayer.

A further series relates to P-gp (MDR1). The series is described as follows: MDR1-MDCKII permeability assay. In kind it is in vitro ADME. The following applies: dog, MDCK-MDR1, pH 7.4, MDR1-MDCKII, 2 µM, 2.0 h, n = 2; for Papp A→B at 2 h, 2 µM: read-out: Apical to basal (AP-BL) Papp; for Papp B→A at 2 h, 2 µM: read-out: Basal to apical (BL-AP) Papp. On the procedure:
as §1

Where [1] appears, read: read-out: % Recovery (Overall) - Apical to basal.
Where [2] appears, read: read-out: % Recovery (Overall) - Basal to Apical.

The efflux ratio is the permeability from basolateral to apical divided by that in the opposite direction, in the common usage.

Like-named read-outs stand apart in the source and are kept apart here.

T1 sequence (Q14444 whole entry): as the sequence (Q14444 whole entry partner) above

As to `N#Cc1cccc(NC(=O)Nc2nc3ccc(C(=O)N4CCOCC4)cc3s2)c1` [compound 0043], on CAPRIN1, the “Interaction with CAPRIN1 alone” value is “no noticeable interaction”. At APP, the “APP-degrading activity after Bafilomycin A1 pretreatment” value is listed as “abolished” and the “APP-degrading activity after MG132 pretreatment” value is “no effect”. For the same molecule, the “Intracellular APP (western blot)” value on APP (SAD2.3-Ns and AG27606-Ns, 72 h, BI 10 µM) was “reduced intracellular APP”. For the same molecule, the recovery at 2 h, 2 µM in the series on MDR1 (P-gp) (setting [1]) is 121%. Moreover, the recovery at 2 h, 2 µM with MDR1 (P-gp) (setting [2]) came out at 106%. Also, in the series with P-gp (MDR1), the efflux ratio at 2 h, 2 µM stood at 114; the Papp A→B at 2 h, 2 µM was 0.4 ×10⁻⁶ cm/s; the Papp B→A at 2 h, 2 µM amounted to 42.6 ×10⁻⁶ cm/s.
On to `COc1cccc(NC(=O)Nc2nc3ccc(C(=O)N4CCOCC4)cc3s2)c1` [compound 0152], for which the “Interaction with CAPRIN1 alone” value on CAPRIN1 was “no noticeable interaction”. Also, at APP, the “APP-degrading activity after Bafilomycin A1 pretreatment” value is “abolished” and the “APP-degrading activity after MG132 pretreatment” value is “no effect”. In addition, the recovery at 2 h, 2 µM in the series with MDR1 (P-gp) (setting [1]) turned out to be 121%. Moreover, the recovery at 2 h, 2 µM in the series with MDR1 (P-gp) (setting [2]) was determined as 141%. For the same molecule, in the series on P-gp (MDR1), the efflux ratio at 2 h, 2 µM is 78; the Papp A→B at 2 h, 2 µM worked out at 0.5 ×10⁻⁶ cm/s; the Papp B→A at 2 h, 2 µM came to 37.4 ×10⁻⁶ cm/s.
